Results published in patent US20200055839A1 (priority 2017, published 2020).

What follows are compounds tested on NL-RLuc virus (assay: Inhibition of HIV replication (NL-RLuc virus, luciferase readout in MT-2 cells)). Conditions: Human immunodeficiency virus 1, MT2, 120 h, MT-2 cells infected with NL-RLuc virus, 5 days of incubation, 10% FBS, at least 2 experiments.
Assay type: cell-based
Procedure, shortened: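 MT-2 cells infected with NL4-3-derived virus carrying Renilla luciferase in place of part of nef, grown 5 days with serial compound dilutions in RPMI 1640/10% FBS. Virus growth read as luciferase expression. EC50 from median effect equation, at least 2 experiments.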
Work on `Cc1ncc(-c2cnc(OCCc3ccc(Cl)cc3Cl)c(F)c2)c(N2CCC(C)(C)CC2)c1[C@H](OC(C)(C)C)C(=O)O` [Example 234, (S)-2-(tert-Butoxy)-2-(6′-(2,4-dichlorophenethoxy)-4-(4,4-dimethylpiperidin-1-yl)-5′-fluoro-6-methyl-[3, 3′-bipyridin]-5-yl)acetic acid] yielded an EC50 of 4 nM.
For `Cc1ncc(-c2ccc(OCCc3ccc(F)cc3)c(Cl)c2)c(N2CCC(C)(C)CC2)c1[C@H](OC(C)(C)C)C(=O)O` [Example 235, (S)-2-(tert-Butoxy)-2-(5-(3-chloro-4-(4-fluorophenethoxy)phenyl)-4-(4,4-dimethylpiperidin-1-yl)-2-methylpyridin-3-yl)acetic acid], the EC50 was 2 nM.
For `Cc1ncc(-c2cnc(OCCc3ccccc3Cl)c(F)c2)c(N2CCC(C)(C)CC2)c1[C@H](OC(C)(C)C)C(=O)O` [Example 238, (S)-2-(tert-Butoxy)-2-(6′-(2-chlorophenethoxy)-4-(4,4-dimethylpiperidin-1-yl)-5′-fluoro-6-methyl-[3, 3′-bipyridin]-5-yl)acetic acid], the EC50 was 2 nM.
For `Cc1ncc(-c2cnc(OCCc3c(F)cccc3Cl)c(F)c2)c(N2CCC(C)(C)CC2)c1[C@H](OC(C)(C)C)C(=O)O` [Example 239, (S)-2-(tert-Butoxy)-2-(6′-(2-chloro-6-fluorophenethoxy)-4-(4,4-dimethylpiperidin-1-yl)-5′-fluoro-6-methyl-[3, 3′-bipyridin]-5-yl)acetic acid], the EC50 was 3 nM.
`Cc1ncc(-c2cnc(OCCc3ccccc3)c(F)c2)c(N2CCC(C)(C)CC2)c1[C@H](OC(C)(C)C)C(=O)O` [Example 240, (S)-2-(tert-Butoxy)-2-(4-(4,4-dimethylpiperidin-1-yl)-5′-fluoro-6-methyl-6′-phenethoxy-[3,3′-bipyridin]-5-yl)acetic acid] showed an EC50 of 1 nM.
For `Cc1ncc(-c2ccc(OCCc3ccc(F)cc3)c(C(F)(F)F)c2)c(N2CCC(C)(C)CC2)c1[C@H](OC(C)(C)C)C(=O)O` [Example 241, (S)-2-(tert-Butoxy)-2-(4-(4,4-dimethylpiperidin-1-yl)-5-(4-(4-fluorophenethoxy)-3-(trifluoromethyl)phenyl)-2-methylpyridin-3-yl)acetic acid], the EC50 was 7 nM.
For `Cc1ncc(-c2cc(C(F)(F)F)c(OCCc3ccc(F)cc3)cn2)c(N2CCC(C)(C)CC2)c1[C@H](OC(C)(C)C)C(=O)O` [Example 244, (S)-2-(tert-Butoxy)-2-(4′-(4,4-dimethylpiperidin-1-yl)-5-(4-fluorophenethoxy)-6′-methyl-4-(trifluoromethyl)-[2, 3′-bipyridin]-5′-yl)acetic acid], the EC50 was 3 nM.
`Cc1nc(-c2cnc(C)c([C@H](OC(C)(C)C)C(=O)O)c2N2CCC(C)(C)CC2)ncc1OCCc1ccc(F)cc1` [Example 245, (S)-2-(tert-Butoxy)-2-(4-(4,4-dimethylpiperidin-1-yl)-5-(5-(4-fluorophenethoxy)-4-methylpyrimidin-2-yl)-2-methylpyridin-3-yl)acetic acid] showed an EC50 of 2 nM.
Work on `CCC(C)(C)O[C@H](C(=O)O)c1c(C)ncc(-c2ccc(OCCc3ccc(F)cc3)cn2)c1N1CCC(C)(C)CC1` [Example 246, (S)-2-(4′-(4,4-Dimethylpiperidin-1-yl)-5-(4-fluorophenethoxy)-6′-methyl-[2, 3′-bipyridin]-5′-yl)-2-(tert-pentyloxy)acetic acid] yielded an EC50 of 0.4 nM.
For `CCC(C)(C)O[C@H](C(=O)O)c1c(C)ncc(-c2ncc(OCCc3ccc(F)cc3)cn2)c1N1CCC(C)(C)CC1` [Example 247, (S)-2-(4-(4,4-Dimethylpiperidin-1-yl)-5-(5-(4-fluorophenethoxy)pyrimidin-2-yl)-2-methylpyridin-3-yl)-2-(tert-pentyloxy)acetic acid], the EC50 was 0.8 nM.
`Cc1cc(-c2cnc(C)c([C@H](OC(C)(C)C)C(=O)O)c2N2CCC(C)(C)CC2)ncc1OCCc1ccc(F)cc1` [Example 248, (S)-2-(tert-Butoxy)-2-(4′-(4,4-dimethylpiperidin-1-yl)-5-(4-fluorophenethoxy)-4, 6′-dimethyl-[2, 3′-bipyridin]-5′-yl)acetic acid] was tested, and the EC50 was 1 nM.
For `COc1nc(-c2cnc(C)c([C@H](OC(C)(C)C)C(=O)O)c2N2CCC(C)(C)CC2)ccc1OCCc1ccc(F)cc1` [Example 249, (S)-2-(tert-Butoxy)-2-(4′-(4,4-dimethylpiperidin-1-yl)-5-(4-fluorophenethoxy)-6-methoxy-6′-methyl-[2, 3′-bipyridin]-5′-yl)acetic acid], the EC50 was 2 nM.
`Cc1ncc(-c2cnc(OCCc3ccc(F)cc3)c(Cl)c2)c(N2CCC(C)(C)CC2)c1[C@H](OC(C)(C)C)C(=O)O` [Example 250, (S)-2-(tert-Butoxy)-2-(5′-chloro-4-(4,4-dimethylpiperidin-1-yl)-6′-(4-fluorophenethoxy)-6-methyl-[3, 3′-bipyridin]-5-yl)acetic acid] gave an EC50 of 2 nM.
`Cc1ncc(-c2cnc(OCCc3cccc(F)c3)c(Cl)c2)c(N2CCC(C)(C)CC2)c1[C@H](OC(C)(C)C)C(=O)O` [Example 251, (S)-2-(tert-Butoxy)-2-(5′-chloro-4-(4,4-dimethylpiperidin-1-yl)-6′-(3-fluorophenethoxy)-6-methyl-[3, 3′-bipyridin]-5-yl)acetic acid] was tested, and the EC50 was 2 nM.
`Cc1ncc(-c2cnc(OCCc3ccccc3F)c(Cl)c2)c(N2CCC(C)(C)CC2)c1[C@H](OC(C)(C)C)C(=O)O` [Example 252, (S)-2-(tert-Butoxy)-2-(5′-chloro-4-(4,4-dimethylpiperidin-1-yl)-6′-(2-fluorophenethoxy)-6-methyl-[3, 3′-bipyridin]-5-yl)acetic acid] was tested, and the EC50 was 1 nM.
`Cc1cc(-c2cnc(C)c([C@H](OC(C)(C)C)C(=O)O)c2N2CCC(C)(C)CC2)cnc1OCCc1ccc(F)cc1` [Example 253, (S)-2-(tert-Butoxy)-2-(4-(4,4-dimethylpiperidin-1-yl)-6′-(4-fluorophenethoxy)-5′,6-dimethyl-[3,3′-bipyridin]-5-yl)acetic acid] gave an EC50 of 1 nM.
Compound `Cc1ncc(-c2ccc(OCCc3ccc(F)cc3)nc2)c(N2CCC(C)(C)CC2)c1[C@H](OC(C)(C)C)C(=O)O` [Example 254, (S)-2-(tert-Butoxy)-2-(4-(4,4-dimethylpiperidin-1-yl)-6′-(4-fluorophenethoxy)-6-methyl-[3,3′-bipyridin]-5-yl)acetic acid] has an EC50 of 0.6 nM.
With `Cc1ncc(-c2ccc(OCCc3cccc(F)c3)nc2)c(N2CCC(C)(C)CC2)c1[C@H](OC(C)(C)C)C(=O)O` [Example 255, (S)-2-(tert-Butoxy)-2-(4-(4,4-dimethylpiperidin-1-yl)-6′-(3-fluorophenethoxy)-6-methyl-[3,3′-bipyridin]-5-yl)acetic acid] the EC50 was 0.8 nM.
Compound `Cc1ncc(-c2ccc(OCCc3ccc(F)cc3)c(C#N)c2)c(N2CCC(C)(C)CC2)c1[C@H](OC(C)(C)C)C(=O)O` [Example 256, (S)-2-(tert-Butoxy)-2-(5-(3-cyano-4-(4-fluorophenethoxy)phenyl)-4-(4,4-dimethylpiperidin-1-yl)-2-methylpyridin-3-yl)acetic acid] has an EC50 of 0.8 nM.
Work on `Cc1ncc(-c2ccc(OCCc3cccc(F)c3)c(F)c2)c(N2CCC(C)(C)CC2)c1[C@H](OC(C)(C)C)C(=O)O` [Example 257, (S)-2-(tert-Butoxy)-2-(4-(4,4-dimethylpiperidin-1-yl)-5-(3-fluoro-4-(3-fluorophenethoxy)phenyl)-2-methylpyridin-3-yl)acetic acid] yielded an EC50 of 1 nM.
`Cc1ncc(-c2ccc(OCCc3ccccc3)c(F)c2)c(N2CCC(C)(C)CC2)c1[C@H](OC(C)(C)C)C(=O)O` [Example 258, (S)-2-(tert-Butoxy)-2-(4-(4,4-dimethylpiperidin-1-yl)-5-(3-fluoro-4-phenethoxyphenyl)-2-methylpyridin-3-yl)acetic acid] showed an EC50 of 1 nM.
Work on `Cc1ncc(-c2ccc(OCCc3ccccc3F)cc2)c(N2CCC(C)(C)CC2)c1[C@H](OC(C)(C)C)C(=O)O` [Example 259, (S)-2-(tert-Butoxy)-2-(4-(4,4-dimethylpiperidin-1-yl)-5-(4-(2-fluorophenethoxy)phenyl)-2-methylpyridin-3-yl)acetic acid] yielded an EC50 of 1 nM.
For `Cc1nc(OCCc2ccc(F)cc2)ccc1-c1cnc(C)c([C@H](OC(C)(C)C)C(=O)O)c1N1CCC(C)(C)CC1` [Example 260, (S)-2-(tert-Butoxy)-2-(4-(4,4-dimethylpiperidin-1-yl)-6′-(4-fluorophenethoxy)-2′,6-dimethyl-[3, 3′-bipyridin]-5-yl)acetic acid], the EC50 was 11 nM.
`Cc1nc(OCCc2cccc(F)c2)ccc1-c1cnc(C)c([C@H](OC(C)(C)C)C(=O)O)c1N1CCC(C)(C)CC1` [Example 261, (S)-2-(tert-Butoxy)-2-(4-(4,4-dimethylpiperidin-1-yl)-6′-(3-fluorophenethoxy)-2′,6-dimethyl-[3, 3′-bipyridin]-5-yl)acetic acid] gave an EC50 of 28 nM.
Work on `CCC(C)(C)O[C@H](C(=O)O)c1c(C)ncc(-c2ccc(OCCc3ccccc3)cc2)c1N1CCC(C)(C)CC1` [Example 264, (S)-2-(4-(4,4-Dimethylpiperidin-1-yl)-2-methyl-5-(4-phenethoxyphenyl)pyridin-3-yl)-2-(tert-pentyloxy)acetic acid] yielded an EC50 of 3 nM.
Compound `Cc1ncc(-c2ccc(OCCc3ccccc3)cc2)c(N2CCC(C)(C)CC2)c1[C@H](OC(C)(C)C)C(=O)O` [Example 265, (S)-2-(tert-Butoxy)-2-(4-(4,4-dimethylpiperidin-1-yl)-2-methyl-5-(4-phenethoxyphenyl)pyridin-3-yl)acetic acid] has an EC50 of 1 nM.
For `Cc1ncc(-c2ccc3ccccc3n2)c(N2CCC(C)(C)CC2)c1[C@H](OC(C)(C)C)C(=O)O` [Example 266, (S)-2-(tert-Butoxy)-2-(4-(4,4-dimethylpiperidin-1-yl)-2-methyl-5-(quinolin-2-yl)pyridin-3-yl)acetic acid], the EC50 was 11 nM.
Compound `Cc1ncc(-c2ncc3ccccc3n2)c(N2CCC(C)(C)CC2)c1[C@H](OC(C)(C)C)C(=O)O` [Example 267, (S)-2-(tert-Butoxy)-2-(4-(4,4-dimethylpiperidin-1-yl)-2-methyl-5-(quinazolin-2-yl)pyridin-3-yl)acetic acid] has an EC50 of 9 nM.
